{"source": "patent US20080051438A1", "about": "“Preventive/Therapeutic Compositions Useful for Treating Cardiovascular Diseases” (priority 2006, published 2008)", "key": {"hypertensive patients [1]": {"test_system": "hypertensive patients", "assay": "Special investigation of combined use of cilnidipine and ARB: occurrence of side-effects (safety analysis)", "type": "in vivo, human", "details": "for side-effect number of cases / side-effect number of examples: cilnidipine and ARB; for side-effect occurence rate (%): combined administration of cilnidipine and ARB", "method": "A special investigation was conducted in various medical centers, compiled, and analyzed to evaluate the safety and availability of the combined use of cilnidipine and at least one angiotensin II receptor blocker.\nThe investigation was conducted mainly in the departments of internal medicine/cardiovascular diseases of various medical institutions. The target of the estimated collected cases was about 3000 cases.\nThe subjects of the investigation were hypertensive patients which were adapted to cilnidipine. Combined administration of cilnidipine and ARB was started for the treatment of hypertension in these patients.\nA prospective continuous investigation method was conducted. Such a method is continuously conducted with the registered cases with the combined administration of cilnidipine (Atelec®) and ARB, until the number of cases reaches the contracted cases for each center.\nRegarding the administration method of cilnidipine, 5 to 10 mg of cilnidipine was orally administered after breakfast once a day. Meanwhile, the amount may increase or decrease depending on patient's age, symptoms, or the like. When the effect is insufficient, the amount can be increased to 20 mg once a day. The dosing period of cilnidipine was set to 12 weeks in principle.\nThe following items were tracked during the investigation: patient's background (sex), existence or nonexistence of previous therapeutic agents and the content thereof, targeted blood pressure (systolic BP/diastolic BP), the conditions of administration of cilnidipine and ARB, antihypertensives used in combination (those other than cilnidipine or ARB), clinical course (systolic BP/diastolic BP/heart rate), and occurrence of side-effects. As for the availability of the combined administration, in the 12th week after starting the combined administration, the doctor in attendance judged the degree of the blood pressure controls on a three-point scale of “well-controlled”, “nearly well-controlled” and “poorly-controlled”, referring to the changes in the systolic and diastolic BP. As for the safety and availability analysis for each patient background, Fisher's exact probability test or the X^2 test was used. As for the blood pressure and heart rate, the average value and the standard deviation were calculated for the subjects before the combined administration (within 4 weeks before starting the combined administration), and data after starting the combined administration were determined on each observation day, and analysis was conducted by using a paired t-test. The test was conducted as the two-sided test and less than 5% of the risk rate was regarded as significant. Furthermore, side-effects were compiled based on the naming of preferred terms (PT) of MedDRA/J ver 8.0.\nThe ratios of the cases wherein side-effects occurred were compared and examined between the sexes in the 2920 cases of the safety analysis (Table 5). […] The ratio thereof in a female group was 3.2% and that in a male group was 1.8%. […] The side-effects observed were mainly subjective symptoms such as headache, palpitation, and free-floating dizziness. Meanwhile, the ratio of the cases wherein the side-effects of these subjective symptoms occurred was low, and it is not a serious side-effect caused by the combined administration."}, "hypertensive patients [2]": {"test_system": "hypertensive patients", "assay": "Special investigation of combined use of cilnidipine and ARB: changes in systolic and diastolic blood pressure", "type": "in vivo, human", "details": "only ARB, then cilnidipine singularly added; last measurement (222.03±143.88 days)"}}, "note": "Where “and” joins values, the source holds several entries; their conditions need not be identical. Equal values may be shown once. Marks after values point to notes of the source that are not given here.", "data": [{"molecule": "COCCOC(=O)C1=C(C)NC(C)=C(C(=O)OC/C=C/c2ccccc2)C1c1cccc([N+](=O)[O-])c1", "note": "(racemic) [cilnidipine, 2-methoxyethyl-3-phenyl-2(E)-propenyl(±)-1,4-dihydro-2,6-dimethyl-4-(3-nitrophenyl)-3,5-pyridinedicarboxylate]", "values": [{"measurement": "ratio of the cases wherein side-effects occurred", "setting": "hypertensive patients [1]; cases on ARB alone to which cilnidipine was additionally administered", "value": "low"}, {"measurement": "side-effect number of cases", "setting": "hypertensive patients [1]; female group, 1,481 cases", "value": 56}, {"measurement": "side-effect number of examples", "setting": "hypertensive patients [1]; female group, 1,481 cases", "value": 47}, {"measurement": "side-effect occurence rate (%)", "setting": "hypertensive patients [1]; female group, 1,481 cases", "value": "3.2% and 3.17%"}, {"measurement": "side-effect number of cases", "setting": "hypertensive patients [1]; male group, 1,416 cases", "value": 32}, {"measurement": "side-effect number of examples", "setting": "hypertensive patients [1]; male group, 1,416 cases", "value": 26}, {"measurement": "side-effect occurence rate (%)", "setting": "hypertensive patients [1]; male group, 1,416 cases", "value": "1.8% and 1.84%"}, {"measurement": "side-effect number of cases", "setting": "hypertensive patients [1]; sex unknown, 23 cases", "value": 0}, {"measurement": "side-effect number of examples", "setting": "hypertensive patients [1]; sex unknown, 23 cases", "value": 0}, {"measurement": "side-effect occurence rate (%)", "setting": "hypertensive patients [1]; sex unknown, 23 cases", "value": 0, "unit": "%"}, {"measurement": "systolic BP, aft. use", "setting": "hypertensive patients [2]", "value": "139.73 ± 15.77^b mmHg"}]}]}
